According to patent publication US20230146455A1, “TREATMENT OF INFLAMMATORY DISEASES WITH PEPTIDES AND PHARMACEUTICAL COMPOSITIONS” (Yuyu Pharma, Inc., priority 2020, published 2023):
Values joined by “and” are separate entries in the source; they are usually repeats but may differ in a detail not shown here. Equal values may be shown once. Where a SMILES comes first, the peptide text is derived from it. [ ]: non-standard residue; d: D form. Hyp = O=C(O)[C@@H]1C[C@@H](O)CN1

Test system: IL-4
Experiment: Example 9 Luminex, LPS hPBMCs: IL-4
Type: cell-based, human
Description: Treatment Human PBMCs were pretreated with YY-101, YDE-011 and YDE-043 or reference compound; Xiidra® at various concentration (ranging from 1 nM to 100 uM) for 2 h before stimulation. An equal volume of 0.5% DMSO was used as a vehicle control. Then, the cells were treated with LPS at 5 ug/ml. The supernatants from treated cells were harvested at 24 h and placed in a 96 well for Luminex cytokine & chemokine profiling using a Luminex 200 multiplex assay (Luminex; R&D system, USA).
The main study arm with triplicate wells per group in a 24-well plate: • 1. Blank • 2. PBMC: 0.5% DMSO • 3. PBMC+LPS (5 ug/ml) • 4. PBMC+YY-101 100 uM • 5. PBMC+YY-101 10 uM • 6. PBMC+YY-101 1 uM • 7. PBMC+YY-101 0.1 uM • 8. PBMC+YY-101 0.01 uM • 9. PBMC+LPS (5 ug/ml)+Xiidra®100 uM • 10. PBMC+LPS (5 ug/ml)+Xiidra® 10 uM • 11. PBMC+LPS (5 ug/ml)+Xiidra® 1 uM • 12. PBMC+LPS (5 ug/ml)+Xiidra®0.1 uM • 13. PBMC+LPS (5 ug/ml)+Xiidra®0.01 uM • 14. PBMC+LPS (5 ug/ml)+Xiidra®0.001 uM • 15. PBMC+LPS (5 ug/ml)+YY-101 100 uM • 16. PBMC+LPS (5 ug/ml)+YY-101 10 uM • 17. PBMC+LPS (5 ug/ml)+YY-101 1 uM • 18. PBMC+LPS (5 ug/ml)+YY-101 0.1 uM • 19. PBMC+LPS (5 ug/ml)+YY-101 0.01 uM • 20. PBMC+LPS (5 ug/ml)+YY-101 0.001 uM • 21. PBMC+LPS (5 ug/ml)+YDE-011 100 uM • 22. PBMC+LPS (5 ug/ml)+YDE-011 10 uM • 23. PBMC+LPS (5 ug/ml)+YDE-011 1 uM • 24. PBMC+LPS (5 ug/ml)+YDE-011 0.1 uM • 25. PBMC+LPS (5 ug/ml)+YDE-011 0.01 uM • 26. PBMC+LPS (5 ug/ml)+YDE-011 0.001 uM • 27. PBMC+LPS (5 ug/ml)+YDE-043 100 uM • 28. PBMC+LPS (5 ug/ml)+YDE-043 10 uM • 29. PBMC+LPS (5 ug/ml)+YDE-043 1 uM • 30. PBMC+LPS (5 ug/ml)+YDE-043 0.1 uM • 31. PBMC+LPS (5 ug/ml)+YDE-043 0.01 uM • 32. PBMC+LPS (5 ug/ml)+YDE-043 0.001 uM
Multiplex assay was used to measure 30 cytokines and chemokines. The 1:2, 1:10 and 1:200 diluted cell supernatant and serial dilution of the standard were dispensed into a 96 well plate at 50 ul/well. Then, the pre-mixed cocktail of antibody-coated magnetic beads was dispensed at 50 ul/well and incubated at room temperature for 2 h in a horizontal orbital microplate shaker at 800±500 rpm. The beads were washed using a magnetic device to prevent loss. The biotin-antibody was dispensed in 50 ul of each well and incubated at room temperature for 1 h in a shaker at 800±500 rpm. After washing, streptavidin-PE was added at 50 ul/well and incubated at room temperature for 30 min in a shaker under the same conditions. Finally, after washing, wash buffer (100 ul/well) was added to the plate and incubated in a shaker for 2 min. The Luminex™ 200 setting were set according to the manufacturer's protocol. The data was calculated with a standard five-parameter logistic nonlinear regression analysis of the data (xPonent software 4.2, USA). The levels of cytokine/chemokine are normalized to the live cell counts (1×10^5 cells/mL) and presented as concentrations per mL (pg/mL or ng/mL).

[1] = PBMC + LPS(5 ug/ml) + test article 0.001 uM, Mean
[2] = PBMC + LPS(5 ug/ml) + test article 0.001 uM, single replicates
[3] = PBMC + LPS(5 ug/ml) + test article 0.01 uM, Mean
[4] = PBMC + LPS(5 ug/ml) + test article 0.01 uM, single replicates
[5] = PBMC + LPS(5 ug/ml) + test article 0.1 uM, Mean
[6] = PBMC + LPS(5 ug/ml) + test article 0.1 uM, single replicates
[7] = PBMC + LPS(5 ug/ml) + test article 1 uM, Mean
[8] = PBMC + LPS(5 ug/ml) + test article 1 uM, single replicates
[9] = PBMC + LPS(5 ug/ml) + test article 10 uM, Mean
[10] = PBMC + LPS(5 ug/ml) + test article 10 uM, single replicates
[11] = PBMC + LPS(5 ug/ml) + test article 100 uM, Mean
[12] = PBMC + LPS(5 ug/ml) + test article 100 uM, single replicates
[13] = PBMC + test article 0.01 uM, no LPS, Mean
[14] = PBMC + test article 0.01 uM, no LPS, single replicates
[15] = PBMC + test article 0.1 uM, no LPS, Mean
[16] = PBMC + test article 0.1 uM, no LPS, single replicates
[17] = PBMC + test article 1 uM, no LPS, Mean
[18] = PBMC + test article 1 uM, no LPS, single replicates
[19] = PBMC + test article 10 uM, no LPS, Mean
[20] = PBMC + test article 10 uM, no LPS, single replicates
[21] = PBMC + test article 100 uM, no LPS, Mean
[22] = PBMC + test article 100 uM, no LPS, single replicates

In the case of CC(C)C[C@H](NC(=O)CNC(=O)[C@H](CC(=O)O)NC(=O)[C@H](CCC(N)=O)NC(=O)CNC(=O)[C@@H]1C[C@@H](O)CN1)C(=O)N[C@@H](C)C(=O)NCC(=O)N1CCC[C@H]1C(=O)N[C@@H](CCCCN)C(=O)O [YY-101] (H-[Hyp]GQDGLAGPK-OH; N-terminus and C-terminus assumed), the “Concentration, Bead name: IL-4” value [1] is reported as 26.0 pg/mL, the “MFI, Bead name: IL-4” value [1] is reported as 1.0 and the “conc/live cell, Bead name: IL-4” value [1] is reported as 4.0 pg/10^5. For the same compound, the “Concentration, Bead name: IL-4” value [2] was 18.4 pg/mL and 33.2 pg/mL and 26.4 pg/mL, the “MFI, Bead name: IL-4” value [2] was 0.0 and 2.0 and 1.0 and the “conc/live cell, Bead name: IL-4” value [2] was 3.2 pg/10^5 and 4.7 pg/10^5 and 4.0 pg/10^5. The “Concentration, Bead name: IL-4” value [3] was 33.2 pg/mL, the “MFI, Bead name: IL-4” value [3] was 2.0 and the “conc/live cell, Bead name: IL-4” value [3] was 5.4 pg/10^5. The “Concentration, Bead name: IL-4” value [4] was 33.2 pg/mL, the “MFI, Bead name: IL-4” value [4] was 2.0 and the “conc/live cell, Bead name: IL-4” value [4] was 5.2 pg/10^5 and 5.5 pg/10^5 and 5.4 pg/10^5. For the same compound, the “Concentration, Bead name: IL-4” value [5] was 39.2 pg/mL, the “MFI, Bead name: IL-4” value [5] was 3.0 and the “conc/live cell, Bead name: IL-4” value [5] was 6.8 pg/10^5. For the same compound, the “Concentration, Bead name: IL-4” value [6] was 39.4 pg/mL and 45.1 pg/mL and 33.2 pg/mL, the “MFI, Bead name: IL-4” value [6] was 3.0 and 4.0 and 2.0 and the “conc/live cell, Bead name: IL-4” value [6] was 6.4 pg/10^5 and 8.7 pg/10^5 and 5.4 pg/10^5. The “Concentration, Bead name: IL-4” value [7] was 33.2 pg/mL, the “MFI, Bead name: IL-4” value [7] was 2.0 and the “conc/live cell, Bead name: IL-4” value [7] was 5.1 pg/10^5. The “Concentration, Bead name: IL-4” value [8] was 33.2 pg/mL, the “MFI, Bead name: IL-4” value [8] was 2.0 and the “conc/live cell, Bead name: IL-4” value [8] was 5.3 pg/10^5 and 4.7 pg/10^5 and 5.4 pg/10^5. The “Concentration, Bead name: IL-4” value [9] was 23.7 pg/mL, the “MFI, Bead name: IL-4” value [9] was 0.7 and the “conc/live cell, Bead name: IL-4” value [9] was 3.6 pg/10^5. The “Concentration, Bead name: IL-4” value [10] was 26.4 pg/ml (2×) and 18.4 pg/ml, the “MFI, Bead name: IL-4” value [10] was 1.0 (2×) and 0.0 and the “conc/live cell, Bead name: IL-4” value [10] was 4.4 pg/10^5 and 4.1 pg/10^5 and 2.4 pg/10^5. The “Concentration, Bead name: IL-4” value [11] was 14.8 pg/mL, the “MFI, Bead name: IL-4” value [11] was −0.3 and the “conc/live cell, Bead name: IL-4” value [11] was 2.5 pg/10^5. The “Concentration, Bead name: IL-4” value [12] was 18.4 pg/ml (2×) and 7.7 pg/ml, the “MFI, Bead name: IL-4” value [12] was 0.0 (2×) and −1.0 and the “conc/live cell, Bead name: IL-4” value [12] was 2.9 pg/10^5 and 3.0 pg/10^5 and 1.5 pg/10^5. The “Concentration, Bead name: IL-4” value [13] was 27.9 pg/mL, the “MFI, Bead name: IL-4” value [13] was 1.3 and the “conc/live cell, Bead name: IL-4” value [13] was 5.6 pg/10^5. The “Concentration, Bead name: IL-4” value [14] was 22.6 pg/mL and 33.2 pg/mL, the “MFI, Bead name: IL-4” value [14] was 0.5 and 2.0 and the “conc/live cell, Bead name: IL-4” value [14] was 4.3 pg/10^5 and 6.9 pg/10^5. The “Concentration, Bead name: IL-4” value [15] was 29.8 pg/mL, the “MFI, Bead name: IL-4” value [15] was 1.5 and the “conc/live cell, Bead name: IL-4” value [15] was 5.9 pg/10^5. The “Concentration, Bead name: IL-4” value [16] was 26.4 pg/mL and 33.2 pg/mL, the “MFI, Bead name: IL-4” value [16] was 1.0 and 2.0 and the “conc/live cell, Bead name: IL-4” value [16] was 6.0 pg/10^5 and 5.7 pg/10^5. The “Concentration, Bead name: IL-4” value [17] was 18.4 pg/mL, the “MFI, Bead name: IL-4” value [17] was 0.0 and the “conc/live cell, Bead name: IL-4” value [17] was 3.3 pg/10^5. For the same compound, the “Concentration, Bead name: IL-4” value [18] was 18.4 pg/mL, the “MFI, Bead name: IL-4” value [18] was 0.0 and the “conc/live cell, Bead name: IL-4” value [18] was 3.3 pg/10^5. For the same compound, the “Concentration, Bead name: IL-4” value [19] was 47.4 pg/mL, the “MFI, Bead name: IL-4” value [19] was 4.5 and the “conc/live cell, Bead name: IL-4” value [19] was 7.6 pg/10^5. The “Concentration, Bead name: IL-4” value [20] was 55.5 pg/mL and 39.4 pg/mL, the “MFI, Bead name: IL-4” value [20] was 6.0 and 3.0 and the “conc/live cell, Bead name: IL-4” value [20] was 8.7 pg/10^5 and 6.5 pg/10^5. For the same compound, the “Concentration, Bead name: IL-4” value [21] was 13.0 pg/mL, the “MFI, Bead name: IL-4” value [21] was −0.5 and the “conc/live cell, Bead name: IL-4” value [21] was 1.9 pg/10^5. For the same compound, the “Concentration, Bead name: IL-4” value [22] was 7.7 pg/mL and 18.4 pg/mL, the “MFI, Bead name: IL-4” value [22] was −1.0 and 0.0 and the “conc/live cell, Bead name: IL-4” value [22] was 1.2 pg/10^5 and 2.6 pg/10^5.
